Measured values published in paper PMC3895568, “Isolation and characterization of Leucine dehydrogenase from a thermophilic Citrobacter freundii JK-91strain Isolated from Jask Port” (Iranian Journal of Microbiology, 2013).

Tested on: T1, LeuDH (Leucine dehydrogenase, EC 1.4.1.9)
T1 construct: native enzyme purified from isolate JK-91 (ammonium sulfate, DEAE-Toyopearl, TSK gel G3000SW); subunit 40 kDa, about 320 kDa, octamer
Test: NADH formation at […] nm, oxidative deamination
Type: biochemical, Citrobacter freundii
Conditions: co-substrate NAD+; standard assay 50 mM glycine-NaOH pH 10.4, 100 mM NaCl, 2.5 mM NAD+; exact conditions and temperature of the kinetics not stated

## CC(C)C[C@H](N)C(=O)O [L-leucine]
  Km: 1200 µM
